One assay concerns the target T1, LOX (Mus musculus, UniProt P28301).
T1 construct: Full length LOX cDNA was then PCR cloned into pEGFP-N1 (Clonetech), or biosensor vector proGFP2-N1; expressed in transfected cells; host or cells: MDCK cells grown as cysts on Matrigel, G418-selected
T1 sequence (P28301 163-411): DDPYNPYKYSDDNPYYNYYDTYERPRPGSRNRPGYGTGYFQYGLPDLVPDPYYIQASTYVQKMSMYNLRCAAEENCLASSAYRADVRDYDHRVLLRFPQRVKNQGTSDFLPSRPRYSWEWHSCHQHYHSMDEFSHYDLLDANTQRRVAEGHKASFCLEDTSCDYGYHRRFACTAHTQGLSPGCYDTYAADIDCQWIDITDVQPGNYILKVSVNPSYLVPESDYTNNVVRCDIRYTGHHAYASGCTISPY
Kind of assay: LOX activity in cysts assay (LOX-roGFP2 biosensor, MDCK cysts). Format: cell-based. Particulars: MDCK cysts; for inhibition at 10 µM: inhibitor added 30 min prior to imaging, DMSO = 0%, BAPN 1 mM = 100% inhibition, read-out: LOX biosensor inhibition (cyst) @ 10 uM; for IC50: roGFP2 ratio at basal surface, read-out: LOX biosensor IC50 (cyst). On the procedure: LOX Activity in Cysts Assay (Tang et al, 2017).
All cell lines used in this study were purchased from American Type Culture Collection (ATCC). Mycoplasma contamination was routinely monitored by PCR. Cells used were not found to be Mycoplasma positive. MDCK cell lines were cultured in Dulbecco's Modified Eagle Medium (DMEM) supplemented with 10% fetal bovine serum (FBS) and 1% Penicillin Streptomycin solution (Pen Strep). For GFP constructs transfection in MDCK cells, lipofectamine 3000 was used according to manufactures protocols. Cells were either selected with G418 (Life Technologies) at 5 mg/ml. All cell culture reagents were purchased from Life Technologies.
To produce MDCK cysts, cells were cultured on Matrigel (Corning) with 2% Matrigel supplemented in DMEM with 10% FBS. Cysts were allowed to form for 10 days before subsequent studies.
Mouse LOX cDNA was purchased from OriGene. Full length LOX cDNA was then PCR cloned into pEGFP-N1 (Clonetech), or biosensor vector proGFP2-N1 (Hanson, 2004) using the following primers, […] (forward primer) and […] (reverse primer). For the insertion into pEGFP-N1 or proGFP2-N1, NheI and XhoI restriction sites were added to forward and reverse primers accordingly. Mutant LOX constructs were made using QuickChange II site-directed mutagenesis kit (Agilent Technologies) following manufacture's protocol using LOX-GFP as template. To generate, roGFP2 versions of LOX mutant constructs, LOX mutant cDNA was transferred from pEGFP-N1 to proGFP2-N1 using NheI and XhoI.
All photomicrographs were taken with a Leica TCS SP8 X confocal system. For LOX biosensor imaging, live MDCK cysts were used. The oxidised biosensor was excited using a 405 nm laser, while the reduced biosensor was excited with a 488 nm laser. Emission of the biosensor was recorded at 500 nm˜530 nm range using sequential scans. Ratio images were generated following a published protocol {Kardash, 2011 #376}. Note, while the published protocol generates YFP/CFP ratio images, we used it to generate Oxidised/Reduced (roGFP2 ratio) ratio images. The roGFP2 ratio at the basal surface of MDCK cysts was used to indicate LOX inhibition. LOX inhibitors were added 30 min prior to imaging.
For clarity, readout for DMSO treated cysts represents 0% inhibition (no inhibition) and readout for BAPN at 1 mM is used as 100% inhibition (full inhibition).

Assay [1] relates to MDA-MB-231 human breast adenocarcinoma. Put plainly: MDA-MB-231 xenografts, primary tumour volume T/C. In kind it is in vivo. The following applies: 200 mg/kg po qd, ratio of average tumour volume treated/vehicle control, p<0.05. The method, then: (§1) All procedures involving animals were approved by the Animal Welfare and Ethical Review Body of the Institute of Cancer Research and Cancer Research UK Manchester Institute in accordance with National Home Office regulations under the Animals (Scientific Procedures) Act 1986 and according to the guidelines of the Committee of the National Cancer Research Institute Tumour size was determined by caliper measurements of tumour length, width and depth and volume was calculated as volume=0.5236×length×width×depth (mm).
MDA-MB-231 xenografts. Ncr nude female mice at 6 weeks old from Charles River were injected into the third upper nipple mammary fat pad with MDA-MB-231 Luc 4×10^6 in 100 ul PB (50:50 Matrigel). When tumours reach a mean of 80 mm^3 around 10 days post cell inoculation the animals are allocated in 4 groups of 8. LOX inhibitor treatment is then administrated by oral gavage dosing, at 0.2 ml/20 g bodyweight once daily for up to 28 consecutive days. Tumours and weights are measured twice weekly using calipers and the animals can be imaged using non invasive method by bioluminescence using IVIS 200 imaging machine, weekly using 150 mg/kg luciferin administrate intraperitoneal or subcutaneous. At the end of the study the animals are culled, and samples taken, fixed or snap frozen in liquid nitrogen. Frozen samples kept at −80 degree centigrade until being analyzed and the fixed samples stained according to desired marker.
(§2) For therapeutic efficacy assessment, the ratio of average tumour volume between compound treated and vehicle control treated (T/C) is calculated. Reduction in tumour volume in the compound treated group compared to vehicle-treated control group results in T/C<1. The efficacy of LOX inhibitors described in this invention, as measured by T/C in a pancreatic cancer model, a colorectal cancer model and a breast cancer model is shown in Table 2 and is significant (p<0.05) for all the data presented.

Assay [2] deals with MMTV-PyMT breast transgenic model primary tumour. Put plainly: MMTV-PyMT transgenic mouse breast cancer model, primary tumour T/C. Particulars: 200 mg/kg po qd; ratio of average tumour volume treated/vehicle control; p<0.05. In kind it is in vivo. On the procedure: as §1
(§3) MMTV-PyMT (Guy et al, 1992) (FVB) female mice were randomized by non-statistical methods to LOX inhibitor treatment groups from day 70 post-birth, when animals had no detectable tumour. Mice were treated daily by oral gavage with LOX inhibitor in vehicle, or daily vehicle (5% DMSO/2.5% Tween20 in water) by oral gavage. Tumour size was determined unblinded by caliper measurements of tumour length, width and depth and volume was calculated as 0.5236×length×width×depth (mm). In all experiments, mice were humanely killed and mammary tumours and lungs were collected when the primary tumours reached ethical limits or signs of ill health.
as §2

Assay [3] deals with MMTV-PyMT breast transgenic model lung metastases. Kind of assay: MMTV-PyMT transgenic mouse breast cancer model, lung metastases quantification T/C. Format: in vivo. The following applies: 200 mg/kg po qd, treated/vehicle control, p<0.05. The method, then: as §3
For lung metastases quantification, all mouse tissue samples were fixed in 10% formalin (Sigma) and embedded in paraffin. Samples were sectioned and hematoxylin and eosin (H&E) stained. Samples were imaged with a Leica CN400 slide scanner. Lung metastases were manually selected using Pen tool in ImageScope. Lung metastases number was counted and area was measured using ImageScope. The investigator was blinded to the experimental groups. The ratio of average metastases surface between compound treated and vehicle control treated (TIC) is calculated. The ratio of average metastases numbers between compound treated and vehicle control treated (T/C) is also calculated. Reduction in metastases area and/or in metastatses number in the compound treated group compared to vehicle-treated control group results in T/C<1. The antimetastatic efficacy of LOX inhibitors described in this invention, as measured by T/C in a model of breast cancer metastasising to lungs is shown in Table 2 and is significant (p<0.05) for all the data presented.

Assay [4] deals with PDAC TRP53R172H (p53 mut) cells (mouse pancreatic carcinoma). Kind of assay: PDAC allografts, primary tumour volume T/C. Format: in vivo. Particulars: 200 mg/kg po qd; ratio of average tumour volume treated/vehicle control; p<0.05. On the procedure:
as §1
PDAC allografts: CD1 nu/nu female mice at 6 weeks of age were inoculated subcutaneously in the right flank with 2×10^6 PDAC TRP53R172H (p53 mut) cells at 100 ul suspension per animal. In some examples, the oral dosing by metal gavage commences one day after cells inoculation, at 0.2 ml/20 g bodyweight per animal once daily for 2-4 weeks, with compound dissolved in 5.25% tween20/saline or 5% DMSO/water. In other examples, groups of 7-8 mice were assigned to treatment following stratified allocation of tumour volumes with a median size of circa 100 mm^3. […] Control animals received a similar dosage of vehicle (5.25% tween20/saline). Tumours and weights are measured twice weekly using calipers. At the end of the study the animals are culled, and samples taken, fixed or snap frozen in liquid nitrogen. Frozen samples kept at −80 degree centigrade until being analysed and the fixed samples stained according to the desired marker.
as §2

For the molecule `CC1(C)C[C@@H]2CN(C(=O)NCCO)C[C@H]1N(c1ccc(N3CCOCC3)cc1)C2` [Example 4, (1S,5S)—N-(2-hydroxyethyl)-9,9-dimethyl-6-(4-morpholinophenyl)-3,6-diazabicyclo[3.2.2]nonane-3-carboxamide], on LOX, the inhibition (commonly the share of the control response that was lost under treatment) at 10 µM amounted to 88% and the IC50 (usually the concentration at which inhibition is half-maximal) stood at 610 nM. The response vs control in vivo at 200 mg/kg in assay [1] stood at 35%.

Regarding `CC1(C)C[C@@H]2CN(C(=O)NC3CCOCC3)C[C@H]1N(c1ccc(N3CCS(=O)(=O)CC3)cc1)C2` [Example 7, (1S,5S)-6-(4-(1,1-dioxidothiomorpholino)phenyl)-9,9-dimethyl-N-(tetrahydro-2H-pyran-4-yl)-3,6-diazabicyclo[3.2.2]nonane-3-carboxamide], the “T/C MMT-PyMT breast transgenic model - primary tumour” value in assay [2] is on record as 0.25. In addition, on LOX, the inhibition at 10 µM is 88% and the IC50 worked out at 540 nM. In addition, the response vs control in vivo at 200 mg/kg in assay [1] came to 34%.

For the molecule `CC1(C)C[C@@H]2CN(C(=O)N3CCOCC3)C[C@H]1N(c1ccc(N3CCS(=O)(=O)CC3)cc1)C2` [Example 10, ((1S,5S)-6-(4-(1,1-dioxidothiomorpholino)phenyl)-9,9-dimethyl-3,6-diazabicyclo[3.2.2]nonan-3-yl)(morpholino)methanone], in assay [2], the “T/C MMT-PyMT breast transgenic model - primary tumour” value was determined as 0.11. In addition, at LOX, the inhibition at 10 µM came out at 100% and the IC50 was below 180 nM. Further, the response vs control in vivo at 200 mg/kg in assay [1] was determined as 39%. For the same molecule, the “T/C MMT-PyMT breast transgenic model - metastases b) Area” value in assay [3] (lung metastases area) is “b) 0.0006”. Moreover, the “T/C MMT-PyMT breast transgenic model - metastases a) Count” value in assay [3] (lung metastases number) was “a) 0.02”.

Turning to `CCOc1ccc(N2C[C@H]3CN(C(=O)NCCc4c[nH]cn4)C[C@@H]2C(C)(C)C3)cc1` [Example 26, (1S,5S)-N-(2-(1H-imidazol-4-yl)ethyl)-6-(4-ethoxyphenyl)-9,9-dimethyl-3,6-diazabicyclo[3.2.2]nonane-3-carboxamide], the “T/C PDAC R172H (p53 mut) (mouse pancreatic carcinoma) - primary tumour” value in assay [4] is on record as 0.46. Also, the IC50 on LOX was 340 nM.

As to `COCCOc1ccc(N2C[C@H]3CN(C(=O)NCCO)C[C@@H]2C(C)(C)C3)cc1` [Example 27, (1S,5S)-N-(2-Hydroxyethyl)-6-(4-(2-methoxyethoxy)phenyl)-9,9-dimethyl-3,6-diazabicyclo[3.2.2]nonane-3-carboxamide], on LOX, the inhibition at 10 µM turned out to be 88% and the IC50 was found to be 990 nM. Besides, the response vs control in vivo at 200 mg/kg in assay [1] worked out at 60%.

Turning to `CC1(C)C[C@@H]2CN(CCCC#N)C[C@H]1N(c1ccc(N3CCS(=O)(=O)CC3)cc1)C2` [Example 39, 4-((1R,5S)-6-(4-(1,1-dioxidothiomorpholino)phenyl)-9,9-dimethyl-3,6-diazabicyclo[3.2.2]nonan-3-yl)butanenitrile], on LOX, the inhibition at 10 µM was 75% and the half-maximal inhibitory concentration (IC50) stood at 3180 nM. Besides, the response vs control in vivo at 200 mg/kg in assay [1] stood at 48%.

Turning to `CC1(C)C[C@@H]2CN(C(=O)CCC#N)C[C@H]1N(c1ccc(N3CCS(=O)(=O)CC3)cc1)C2` [Example 49, 4-((1 S,5S)-6-(4-(1,1-Dioxidothiomorpholino)phenyl)-9,9-dimethyl-3,6-diazabicyclo[3.2.2]nonan-3-yl)-4-oxobutanenitrile], the inhibition at 10 µM on LOX came to 100%. The response vs control in vivo at 200 mg/kg in assay [1] came to 62%.

`CC1(C)C[C@@H]2CN(C(=O)N3CCS(=O)(=O)CC3)C[C@H]1N(c1ccc3c(c1)OCCO3)C2` [Example 63, ((1 S,5S)-6-(2,3-dihydrobenzo[b][1,4]dioxin-6-yl)-9,9-dimethyl-3,6-diazabicyclo[3.2.2]nonan-3-yl)(1,1-dioxidothiomorpholino)methanone]: on LOX, the inhibition at 10 µM worked out at 100%.

`CC1(C)C[C@@H]2CN(C(=O)N3CCS(=O)(=O)CC3)C[C@H]1N(c1cccc(N3CCS(=O)(=O)CC3)c1)C2` [Example 64, (1,1-dioxidothiomorpholino)((1S,5S)-6-(3-(1,1-dioxidothiomorpholino)phenyl)-9,9-dimethyl-3,6-diazabicyclo[3.2.2]nonan-3-yl)methanone]: the inhibition at 10 µM on LOX is 100%.

Regarding `COc1cc(OC)cc(N2C[C@H]3CN(C(=O)N4CCS(=O)(=O)CC4)C[C@@H]2C(C)(C)C3)c1` [Example 65, ((1S,5S)-6-(3,5-dimethoxyphenyl)-9,9-dimethyl-3,6-diazabicyclo[3.2.2]nonan-3-yl)(1,1-dioxidothiomorpholino)methanone], the inhibition at 10 µM on LOX came out at 88%.

The values are drawn from patent publication US12060360B2, “Lysyl oxidase inhibitors” (The Institute of Cancer Research: Royal Cancer Hospital, priority 2017, dated 2024).
